Converted amounts (≈) assume the structure as drawn. Like-named read-outs stand apart in the source and are kept apart here.
Experiments:
[1] = system: Streptococcuss pyogenes ATCC 19615; assay: Antibacterial MIC/MBC (broth microdilution); type: cell-based, Streptococcus pyogenes; settings: for MBC / MIC: Streptococcuss pyogenes ATCC 19615; for antibacterial activity (in words): S. pyogenes ATCC 19615
Text: (§1) Twelve reference bacterial strains and nine MDR clinically relevant bacterial strains were used in this study. Gram-negative bacteria comprised reference strains E. coli ATCC 25922, K. pneumoniae ATCC 13883, Salmonella enterica serovar Typhimurium CECT 443, P. aeruginosa ATCC 27853, A. baumannii ATCC 19606, C. jejuni ATCC 33560 (ATCC—American Type Culture Collection; CECT—Colección Espanola de Cultivos Tipo); clinical isolates E. coli SA/2, an extended-spectrum β-lactamase (ESBL)-producing strain and P. aeruginosa 33b, a pan-drug-resistant isolate; and animal isolates C. jejuni P5/4, a ciprofloxacin-resistant strain, C. jejuni 4432, C. jejuni 4433, C. jejuni 4448, and E. coli 2252, a COL-resistant strain [42]. Gram-positive strains included S. aureus ATCC 29213, E. faecalis ATCC 29212, S. pyogenes ATCC 19615, and environmental isolates methicillin-resistant S. aureus (MRSA) 66/1 [43], and VAN-resistant enterococci (VRE) E. faecalis B3/101 [44]. Gram-negative fish pathogens Yersinia ruckeri ATCC 29473, Listonella anguillarum ATCC 1924, and Tenacibaculum maritimum ATCC 43397 were also included.
(§2) Strains were kept in Trypto-Casein Soy agar (TSA—Biokar Diagnostics, Allone, Beauvais, France) slants and, before each assay, were sub-cultured in Mueller-Hinton agar (MHA—Biokar Diagnostics, Allone, Beauvais, France). Y. ruckeri ATCC 29473 and L. anguillarum ATCC 1924 were kept in Nutrient Agar (Condalab, Madrid, Spain) and T. maritimum ATCC 43397 was kept in TMM agar (Condalab, Madrid, Spain), and were sub-cultured in the respective culture media before each assay. For S. pyogenes ATCC 19615, CAMHB was supplemented with 3.75% lysed horse blood (LBH—Oxoid, Basingstoke, England), whereas for C. jejuni it was supplemented with 2.5% LHB. Colony-forming unit counts of the inoculum were conducted to determine the initial inoculum size (which should be approximately 5×10^5 CFU/mL). Sterility and growth controls were included in each assay. The 96-well U-shaped untreated polystyrene microtiter plates were incubated for 20 h at 37 degrees C. (42 degrees C. for C. jejuni, in a microaerophilic atmosphere) and the minimal inhibitory concentration (MIC) was determined as the lowest concentration of compound that prevented visible growth. The minimal bactericidal concentration (MBC) was determined by spreading 100 μL of the content of the wells with no visible growth on MH plates. The MBC was determined as the lowest concentration of compound that killed 99.9% of the initial inoculum after overnight incubation at 37 degrees C. Two independent assays were performed for reference and MDR strains.
(§3) An initial screening of the antibacterial activity of the compounds was performed by the Kirby-Bauer disk diffusion method, as recommended by the Clinical and Laboratory Standards Institute (CLSI). Briefly, sterile 6 mm blank paper disks (Oxoid, Basingstoke, England) impregnated with 15 μg of each compound were placed on inoculated MH agar plates. A blank disk with dimethylsulfoxide (DMSO) was used as a negative control. MH inoculated plates were incubated for 18-20 h at 37 degrees C. At the end of incubation, the inhibition halos where measured. The MIC was used to determine the antibacterial activity of each compound, in accordance with the recommendations of the CLSI. Two-fold serial dilutions of the compounds were prepared in Mueller-Hinton Broth 2 (MHB2—Sigma-Aldrich, St. Louis, MO, USA) within the concentration range of 0.062-64 μg/mL. CTX ranging between 0.031-16 μg/mL was used as a control. Sterility and growth controls were included in each assay. Purity checks and colony counts of the inoculum suspensions were also performed in order to ensure that the final inoculum density closely approximates the intended number (5×10^5 CFU/mL). The MIC was determined as the lowest concentration of compound that inhibited growth of the bacteria. The MBC was assessed by spreading 10 μL of culture collected from wells showing no visible growth on MH agar plates. […]

[2] = system: Pseudomonas aeruginosa ATCC 27853; assay: Antibacterial MIC/MBC (broth microdilution); type: cell-based; settings: for MBC / MIC: Pseudomonas aeruginosa ATCC 27853
How it was run: (§4)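 MIC = lowest compound concentration with no visible growth after 20 h at 37 degrees C in MHB2 microdilution (0.062-64 μg/mL; ~5×10^5 CFU/mL). MBC = lowest concentration giving 99.9% kill of the initial inoculum when no-growth wells were subcultured on MH agar overnight.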

[3] = system: Escherichia coli ATCC 25922; assay: Antibacterial MIC/MBC (broth microdilution); type: cell-based; settings: for MBC / MIC: Escherichia coli ATCC 25922
How it was run: as §4

[4] = system: Acinetobacter baumannii ATCC 19606; assay: Antibacterial MIC/MBC (broth microdilution); type: cell-based; settings: for antibacterial activity (in words): A. baumannii ATCC 19606; for MBC / MIC: Acinetobacter baumannii ATCC 19606
How it was run: as §4

[5] = system: Gram-negative and Gram-positive bacteria; assay: Antibacterial activity, whole strain panel; type: cell-based; settings: for spectrum of antibacterial activity (in words): all bacterial strains tested
Text: as §1, §2, §3

P. aeruginosa 33b (PDR) = assay: Antibacterial MIC/MBC (broth microdilution); type: cell-based, Pseudomonas aeruginosa; settings: for MBC / MIC: P. aeruginosa 33b (PDR)
Text: as §1, §2, §3

[6] = Streptococcus pyogenes, ATCC19615, read-out: MBC
[7] = Streptococcus pyogenes, ATCC19615, read-out: MIC
[8] = Pseudomonas aeruginosa, read-out: MBC
[9] = Pseudomonas aeruginosa, read-out: MIC

Row | Structure (SMILES) | MBC [1, 6] [µg/mL] | MIC [1, 7] [µg/mL] | MBC ([2]; ATCC27853, read-out: MBC) [µg/mL] | MIC ([2]; ATCC27853, read-out: MIC) [µg/mL] | MBC ([3]; ATCC25922, read-out: MBC) [µg/mL] | MIC ([3]; ATCC25922, read-out: MIC) [µg/mL] | antibacterial activity (in words) [4] | MBC ([4]; ATCC19606, read-out: MBC) [µg/mL] | MIC ([4]; ATCC19606, read-out: MIC) [µg/mL] | activity against Gram-negative bacteria (in words) [5] | MBC (P. aeruginosa 33b (PDR); [8]) [µg/mL] | MIC (P. aeruginosa 33b (PDR); [9]) [µg/mL] | also measured
1 | C[C@H](CCC(=O)N1CCN(C(=O)CC[C@H](C)[C@@H]2CC[C@@H]3[C@H]4CC[C@H]5C[C@@H](O)CC[C@@]5(C)[C@@H]4C[C@@H](O)[C@]32C)CC1)[C@H]1CC[C@H]2[C@@H]3CC[C@@H]4C[C@H](O)CC[C@]4(C)[C@H]3C[C@H](O)[C@]12C [Compound 4, (R)-4-((3R,5R,8R,9S,10S,12S,13R,14S,17R)-3,12-dihydroxy-10,13-dimethylhexadecahydro-1H-cyclopenta[a]phenanthren-17-yl)-1-(4-((S)-4-((3S,5S,8S,9R,10R,12R,13S,14R,17S)-3,12-dihydroxy-10,13-dimethylhexadecahydro-1H-cyclopenta[a]phenanthren-17-yl)pentanoyl)piperazin-1-yl) pentan-1-one] | > 64 | > 64 | > 64 | > 64 | > 64 | > 64 | displayed an inhibitory effect | 64 (≈ 76.6 µM) | 64 (≈ 76.6 µM) | exhibited activities | > 64 | > 64 | spectrum of antibacterial activity (in words) [5]: active in eight of the tested strains
2 | C[C@H](CCC(=O)NCCN)[C@H]1CC[C@H]2[C@@H]3CC[C@@H]4C[C@H](O)CC[C@]4(C)[C@H]3C[C@H](O)[C@]12C [Compound 1, (R)—N-(2-aminoethyl)-4-((3R,5R,8R,9S,10S,12S,13R,14S,17R)-3,12-dihydroxy-10,13-dimethylhexadecahydro-1H-cyclopenta[a]phenanthren-17-yl) pentanamida] |  |  |  |  |  |  | displayed an inhibitory effect |  |  | exhibited activities |  |  | antibacterial activity (in words) [1]: active; MBC [1]: 64 µg/mL (≈ 147 µM); MIC [1]: 64 µg/mL (≈ 147 µM); antibacterial activity (in words) ([2]; P. aeruginosa ATCC 27853): active; MBC [2]: 64 µg/mL (≈ 147 µM); MIC [2]: 64 µg/mL (≈ 147 µM); antibacterial activity (in words) ([3]; E. coli ATCC 25922): active; MBC [3]: 64 µg/mL (≈ 147 µM); MIC [3]: 32 µg/mL (≈ 73.6 µM); MBC [4]: 64 µg/mL (≈ 147 µM); MIC [4]: 64 µg/mL (≈ 147 µM); spectrum of antibacterial activity (in words) [5]: active in every bacterial strain tested; antibacterial activity (in words) (P. aeruginosa 33b (PDR); P. aeruginosa 33b): active; MBC (P. aeruginosa 33b (PDR)): >64 µg/mL; MIC (P. aeruginosa 33b (PDR)): 64 µg/mL (≈ 147 µM)
3 | CCN(CC)CCNC(=O)CC[C@@H](C)[C@H]1CC[C@H]2[C@@H]3CC[C@@H]4C[C@H](O)CC[C@]4(C)[C@H]3C[C@H](O)[C@]12C [Compound 6, (R)—N-(2-(diethylamino)ethyl)-4-((3R,5R,8R,9S,10S,12S,13R,14S,17R)-3,12-dihydroxy-10,13-dimethylhexadecahydro-1H-cyclopenta[a]phenanthren-17-yl)pentanamide] | > 64 | > 64 | > 64 | > 64 | > 64 | 64 (≈ 130 µM) | displayed an inhibitory effect | 64 (≈ 130 µM) | 64 (≈ 130 µM) | exhibited activities | > 64 | > 64 | 
4 | C[C@H](CCC(=O)N1CCCCC1)[C@H]1CC[C@H]2[C@@H]3CC[C@@H]4C[C@H](O)CC[C@]4(C)[C@H]3C[C@H](O)[C@]12C [Compound 2, (R)-4-((3R,5R,8R,9S,10S,12S,13R,14S,17R)-3,12-dihydroxy-10,13-dimethylhexadecahydro-1H-cyclopenta[a]phenanthren-17-yl)-1-(piperidin-1-yl) pentan-1-one] | 32 (≈ 69.6 µM) | 32 (≈ 69.6 µM) | > 64 | > 64 | > 64 | > 64 |  | > 64 | > 64 |  | > 64 | > 64 | antibacterial activity (in words) [1]: active
5 | C[C@H](CCC(=O)NCCNc1ccccc1)[C@H]1CC[C@H]2[C@@H]3CC[C@@H]4C[C@H](O)CC[C@]4(C)[C@H]3C[C@H](O)[C@]12C [Compound 8, (R)-4-((3R,5R,8R,9S,10S,12S,13R,14S,17R)-3,12-dihydroxy-10,13-dimethylhexadecahydro-1H-cyclopenta[a]phenanthren-17-yl)-N-(2-(phenylamino)ethyl)pentanamide] | > 64 | > 64 | > 64 | > 64 | > 64 | > 64 |  | > 64 | > 64 |  | > 64 | > 64 | 
6 | C[C@H](CCC(=O)N1CCN(C(=O)OC(C)(C)C)CC1)[C@H]1CC[C@H]2[C@@H]3CC[C@@H]4C[C@H](O)CC[C@]4(C)[C@H]3C[C@H](O)[C@]12C [Compound 5, tert-butyl 4-((R)-4-((3R,5R,8R,9S,10S,12S,13R,14S,17R)-3,12-dihydroxy-10,13-dimethylhexadecahydro-1H-cyclopenta[a]phenanthren-17-yl)pentanoyl)piperazine-1-carboxylate] | > 64 | > 64 | > 64 | > 64 | > 64 | > 64 |  | > 64 | > 64 |  | > 64 | > 64 | 
7 | C[C@H](CCC(=O)N1CCOCC1)[C@H]1CC[C@H]2[C@@H]3CC[C@@H]4C[C@H](O)CC[C@]4(C)[C@H]3C[C@H](O)[C@]12C [Compound 3, (R)-4-((3R,5R,8R,9S,10S,12S,13R,14S,17R)-3,12-dihydroxy-10,13-dimethylhexadecahydro-1H-cyclopenta[a]phenanthren-17-yl)-1-morpholinopentan-1-one] | > 64 | > 64 | > 64 | > 64 | > 64 | > 64 |  | > 64 | > 64 |  | > 64 | > 64 | 

Reference: patent US20250002450A1, “CATIONIC STEROID COMPOUNDS, METHOD OF OBTAINING THEREOF, FORMULATIONS COMPRISING THEREOF AND THEIR USES” (UNIVERSIDADE DO PORTO, priority 2021, published 2025)
